From US20240315244A1, “ANTIVIRAL COATING AGENT, ANTIVIRAL AGENT, LAMINATED BODY, AND PACKAGE OR CONTAINER” (National Institute for Materials Science, priority 2021, published 2024)

Assay: solubility in organic solvents
Format: physicochemical

solubility in low-polarity solvents (low-polarity solvents, such as ethyl acetate): insoluble
solubility in polar solvents (polar solvents, such as NPM or MEK): soluble
Compound: O=C(OCC1OC(OC(=O)c2cc(O)c(O)c(OC(=O)c3cc(O)c(O)c(O)c3)c2)C(OC(=O)c2cc(O)c(O)c(OC(=O)c3cc(O)c(O)c(O)c3)c2)C(OC(=O)c2cc(O)c(O)c(OC(=O)c3cc(O)c(O)c(O)c3)c2)C1OC(=O)c1cc(O)c(O)c(OC(=O)c2cc(O)c(O)c(O)c2)c1)c1cc(O)c(O)c(OC(=O)c2cc(O)c(O)c(O)c2)c1 (centres unmarked) [tannic acid, Tannic acid]
